Measured values published in patent US7932262B2 (Novartis AG, priority 2006, dated 2011).
Where two headings read alike, the source gives them in different places.

Legend:
PDK1 kinase = molecular target: T1, PDK1 kinase (Homo sapiens, UniProt O15530); assay: PDK1 Kinase Alpha Screen Assay; type: biochemical; conditions: read-out: PDK1 IC50
T1 sequence (O15530 1-556): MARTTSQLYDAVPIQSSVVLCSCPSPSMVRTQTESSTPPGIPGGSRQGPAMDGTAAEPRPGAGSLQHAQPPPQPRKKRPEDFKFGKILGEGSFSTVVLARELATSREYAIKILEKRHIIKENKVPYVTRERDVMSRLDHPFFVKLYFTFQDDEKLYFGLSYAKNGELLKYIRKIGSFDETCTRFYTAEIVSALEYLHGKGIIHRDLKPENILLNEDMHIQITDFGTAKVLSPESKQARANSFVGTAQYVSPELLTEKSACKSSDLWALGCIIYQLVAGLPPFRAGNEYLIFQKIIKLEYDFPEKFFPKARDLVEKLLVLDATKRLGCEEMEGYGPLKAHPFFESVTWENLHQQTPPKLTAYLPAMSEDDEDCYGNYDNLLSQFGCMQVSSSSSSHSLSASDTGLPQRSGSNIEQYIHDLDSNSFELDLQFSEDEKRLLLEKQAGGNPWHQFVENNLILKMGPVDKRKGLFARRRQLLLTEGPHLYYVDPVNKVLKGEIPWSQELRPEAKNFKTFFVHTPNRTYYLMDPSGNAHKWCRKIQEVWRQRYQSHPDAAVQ
Summary of the method: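 Compound in DMSO added to PDK1-4 peptide; PDK1/ATP mix starts reaction (final 50 nM peptide, 10 uM ATP). Runs 3-18 hours, stopped with 90 mM EDTA buffer. Antibody/bead mix added, developed overnight at room temperature, then AlphaScreen signal read.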

PC-3 cells = assay: Cell Proliferation Assay (Cell Titer Glo), PC-3 cell line; type: cell-based; conditions: Homo sapiens, read-out: CPEC50 PC3
Summary of the method: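 PC-3 cells, 1000 cells/well, left to adhere 3-5 h, then exposed for 3 days at 37° C to compounds as 1:3 serial dilutions from 500× DMSO stocks diluted in growth medium. Medium then replaced with fresh medium and viability read by Cell Titer Glo luminescence.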

[1] = PC-3, Cell Proliferation Assay, PC3

Row | Compound | IC50 (PDK1 kinase; PDK1 Kinase Alpha Screen Assay) [µM] | EC50 (PC-3 cells; [1]) [µM] | IC50 (PDK1 kinase) [µM] | EC50 (PC-3 cells; PC-3, PC3 cells) [µM] | EC50 (PC-3 cells; PC-3, Cell Proliferation Assay, PC3 cells) [µM]
1 | CC(C)N1CCC(Oc2cccc3cnc(Nc4cccc(N5CCCC5)c4)nc23)CC1 [Compound 551, 8-(1-isopropylpiperidin-4-yloxy)-N-(3-(pyrrolidin-1-yl)phenyl)quinazolin-2-amine] | < 5 | 5 to 10 | – | – | –
2 | N#Cc1cc2cnc(Nc3ccc(N4CCOCC4)cc3)nc2cc1OC1CCNCC1 [Compound 644, 2-(4-morpholinophenylamino)-7-(piperidin-4-yloxy)quinazoline-6-carbonitrile] | < 5 | < 5 | – | – | –
3 | Brc1ccc(OC2CCNCC2)c2nc(Nc3ccc(N4CCOCC4)cc3)ncc12 [Compound 435, 5-bromo-N-(4-morpholinophenyl)-8-(piperidin-4-yloxy)quinazolin-2-amine] | < 5 | 5 to 10 | – | – | –
4 | CC(C)NS(=O)(=O)c1ccc(Nc2ncc3c(Br)ccc(OC4CCNCC4)c3n2)cc1 [Compound 342, 4-(5-bromo-8-(piperidin-4-yloxy)quinazolin-2-ylamino)-N-isopropylbenzenesulfonamide] | < 5 | < 5 | – | – | –
5 | NC(=O)c1cc(Nc2ncc3c(Cl)ccc(OC4CCNCC4)c3n2)cc(C(F)(F)F)c1 [Compound 381, 3-(5-chloro-8-(piperidin-4-yloxy)quinazolin-2-ylamino)-5-(trifluoromethyl)benzamide] | < 5 | < 5 | – | – | –
6 | Cn1cnnc1-c1cccc(Nc2ncc3cccc(-c4ccc(NCCN5CCCC5)nc4)c3n2)c1 [Compound 1021, N-(3-(4-methyl-4H-1,2,4-triazol-3-yl)phenyl)-8-(6-(2-(pyrrolidin-1-yl)ethylamino)pyridin-3-yl)quinazolin-2-amine] | – | – | < 5 | < 5 | –
7 | CC(C)N1CCC(Oc2ccc3cnc(Nc4cccc(F)c4)nc3c2)CC1 [Compound 573, N-(3-fluorophenyl)-7-(1-isopropylpiperidin-4-yloxy)quinazolin-2-amine] | < 5 | 5 to 10 | – | – | –
8 | c1cc(-c2ccc(NCCN3CCCC3)nc2)c2nc(Nc3ccc(N4CCOCC4)nc3)ncc2c1 [Compound 424, N-(6-morpholinopyridin-3-yl)-8-(6-(2-(pyrrolidin-1-yl)ethylamino)pyridin-3-yl)quinazolin-2-amine] | < 5 | < 5 | – | – | –
9 | CN1CCC(Nc2ccc(Cl)c3cnc(Nc4ccc(C(=O)N5CCOCC5)cc4)nc23)CC1 [Compound 377, (4-(5-chloro-8-(1-methylpiperidin-4-ylamino)quinazolin-2-ylamino)phenyl) (morpholino)methanone] | < 5 | < 5 | – | – | –
10 | NS(=O)(=O)c1ccc(Nc2ncc3cccc(-c4ccc(NCCCN5CCCC5)nc4)c3n2)cc1 [Compound 972, 4-(8-(6-(3-(pyrrolidin-1-yl)propylamino)pyridin-3-yl)quinazolin-2-ylamino)benzenesulfonamide] | – | – | < 5 | < 5 | –
11 | CN1CCC(Nc2ccc3cnc(Nc4ccc(N5CCOCC5)c(Cl)c4)nc3c2)CC1 [Compound 355, N2-(3-chloro-4-morpholinophenyl)-N7-(1-methylpiperidin-4-yl)quinazoline-2,7-dimaine] | < 5 | < 5 | – | – | –
12 | C#Cc1cc2cnc(Nc3ccc(C(=O)N4CCOCC4)cc3)nc2cc1OC1CCNCC1 [Compound 641] | < 5 | < 5 | – | – | –
13 | NS(=O)(=O)c1ccc(Nc2ncc3cccc(-c4cncc(CN5CCCC5)c4)c3n2)cc1 [Compound 941, 4-(8-(5-(pyrrolidin-1-ylmethyl)pyridin-3-yl)quinazolin-2-ylamino)benzenesulfonamide] | – | – | < 5 | < 5 | –
14 | CC(C)Cn1cc(-c2ccc3cnc(Nc4ccc(S(=O)(=O)NCCN5CCCCC5)cc4)nc3c2)cn1 [Compound 711, 4-(7-(1-isobutyl-1H-pyrazol-4-yl)quinazolin-2-ylamino)-N-(2-(piperidin-1-yl)ethyl)benzenesulfonamide] | < 5 | – | – | – | < 5
